Data on 1 compound can be found in paper PMC8205030, “Methoxy and bromo scans on N-(5-methoxyphenyl) methoxybenzenesulphonamides reveal potent cytotoxic compounds, especially against the human breast adenocarcinoma MCF7 cell line” (Journal of Enzyme Inhibition and Medicinal Chemistry, 2021).

Assay [1] has as its system MCF7 (human breast carcinoma) cells. Briefly: Cell growth assay (XTT), MCF7. The format is cell-based. Conditions: Homo sapiens, MCF7; 72 h drug exposure, XTT; read-out: Antiproliferative activity IC50 MCF7. In a few lines:
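Cells (1.5 × 10^4 cells/mL for MCF7, HeLa, HEK293; 3 × 10^4 cells/mL for HT-29) attached 24 h, then treated 72 h at 37 °C, 5% CO2. Screened at 1 µM; IC50 versus untreated controls from 10^−5 to 10^−10 M by nonlinear fit. XTT/PMS absorbance at 450 nm after 4 h (MCF7, HeLa) or 6 h (HT-29, HEK293); HT-29 with 10 µM verapamil.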

Another assay has as its system MCF7 cells. Put plainly: Cell cycle analysis (PI, flow cytometry), MCF7. The format is cell-based, human. The protocol: MCF7, HeLa, and HT-29 cell cycle analyses were performed by quantifying the DNA content by flow cytometry. Cells in the exponential growth phase at 2 × 10^4 cells/mL were seeded in 24-well plates (1 ml/well). After 24 h incubation, cells were treated with compound 25 at 87.5 or 175 nM. After 24, 48, and 72 h treatments, live and dead cells were collected and fixed in ice-cold ethanol:PBS (7:3) and stored at 4 °C for later use. Cells were rehydrated with phosphate-buffered saline (PBS), treated with 100 µg/mL RNase A (Sigma-Aldrich Co., St. Louis, MO, USA), and stained overnight in darkness at room temperature with 50 µg/mL propidium iodide (PI) (Sigma-Aldrich Co.). Cell cycle profiles were then analysed by flow cytometry using BD Accuri™ C6 Plus Flow Cytometer (BD Biosciences, San José, CA, USA). Data were analysed with BD Accuri™ C6 Software (version 1.0.264.21, BD Biosciences, San José, CA, USA) and compared to control cells treated with 0.5% (v/v) DMSO. Compounds were dissolved in DMSO and the final solvent concentrations never exceeded 0.5% (v/v).

The test system of another assay is p-62 in MCF7 cells. Put plainly: Western blot of autophagosome marker p-62, MCF7. The format is cell-based, human. Conditions: MCF7, 175 nM, 24 h. The protocol: MCF7, HeLa and HT-29 cells in an exponential growth phase at 2 × 10^4 cells/mL were seeded in Petri dishes (20 × 100 mm) (10 ml/dish). After 24 h incubation, cells were treated with compound 25 at 175 nM, and the levels of p-62 in treated and untreated cells were measured at 24 h post-treatment. The culture medium was removed, cells were washed with PBS and resuspended in 1 ml lysis buffer (50 mM Tris, 130 mM NaCl, 1 mM EDTA, 1% Triton X-100) containing protease inhibitors (Complete, Roche Applied Science, Indianapolis). Cells were harvested and incubated with lysis buffer for 30 min at 4 °C in constant agitation. Cell extracts were centrifuged at 12,000 rpm for 15 min at 4 °C and the supernatants were stored at −80 °C. Protein concentrations were determined using Bradford (BioRad, Hercules, CA) method taking BSA (Bovine Serum Albumin) as standard. Protein extracts were used for electrophoresis mixing with loading buffer (4% SDS, 0.05% bromophenol blue, 20% glycerine, 2% β-mercaptoethanol, and Tris 100 mM at pH 6.8). Proteins were then denatured at 95 °C for 7 min. Protein samples (50 μg/lane) were subjected to electrophoresis on 8% acrylamide gel and SDS-PAGE running buffer at constant voltage (140 V). Then, acrylamide gels were transferred to a PVDF membrane (Merck Millipore, Burlington, Massachusetts, USA) using a semi-dry transfer system for 30 min at constant voltage (15 V). […]

[2] abbreviates: MCF7, 175 nM (higher dose), 48 h.
[3] abbreviates: MCF7, 175 nM (higher dose), 72 h.

With `COc1ccc(S(=O)(=O)N(CC#N)c2cc(OC)c(Br)cc2OC)cc1` [Compound 25, N-(4-bromo-2,5-dimethoxyphenyl)-N-(cyanomethyl)-4-methoxybenzenesulphonamide], in assay [1], the IC50 – broadly, the concentration needed to halve the response being measured – turned out to be 86 nM. Moreover, the “Cells at G2/M phase” value in the assay on MCF7 cells (MCF7, 87.5 nM, 24 h) was 66%; in the assay on MCF7 cells (setting [2]) it was 55%; in the assay on MCF7 cells (setting [3]), 58%; in the assay with MCF7 cells (MCF7, 175 nM, 24 h) it was 60%. The subG0/G1 population in the assay with MCF7 cells (MCF7, 87.5 nM, 24 h) was 12%; in the assay with MCF7 cells (setting [2]), 24%; with MCF7 cells (setting [3]), 26%; in the assay with MCF7 cells (MCF7, 175 nM, 24 h) it was 16%. For the same compound, in the assay on p-62 in MCF7 cells, the p-62 levels result is recorded as “decay in p-62 levels”.
